In US20210349108A1, “IMMUNOASSAY FOR MEASURING C-PEPTIDE” (Roche Diabetes Care GmbH, priority 2018, published 2021):

Legend:
[1] = tested on: anti-C-peptide antibody PEP001; experiment: QCM displacement immunoassay, ligand immobilized on Au-surface, antibody PEP001; type: binding; settings: for QCM frequency change on addition of sample containing WT-C-peptide (displacement of the ligand, release of antibody-C-peptide-complex): streptavidin/ligand/PEP001 assembly on Au-surface
Text: An Au-substrate is covered with a self-assembled monolayer (SAM). This self-assembled monolayer protects the surface from unspecific adsorption of peptides or proteins. Part of the SAM molecules is coupled with biotin, which is exposed on the surface. To this surface the biotin binding protein streptavidin is applied and bound by the biotin moieties. Since streptavidin has a plurality of binding sides for biotin, a ligand labeled with biotin can be bound to the streptavidin. Finally, anti-C-peptide antibody PEP001 is added, which binds to the ligand forming an immobilized antibody-ligand-complex, which is schematically depicted in FIG. 2. The stepwise build-up of an immobilized antibody-ligand-complex on the Au-surface can be monitored using a Quartz Crystal Microbalance (QCM). […] Referring to FIG. 3, attachment of streptavidin and Mut6-C-peptide results in a frequency shift of about −20 Hz. The binding of antibody PEP001 to the ligand Mut6-C-peptide results in a frequency shift of about >−50 Hz.
Addition of a sample containing C-peptide results in displacement of the ligand by wild type C-peptide and release of a C-peptide-antibody-complex as schematically shown in FIG. 2.
A quantitative determination of the amount of C-peptide within a sample can be achieved by calibrating the assay using solutions having known C-peptide concentrations. The amount of frequency shift observed for a sample indicates the quantitative amount of C-peptide being present within that sample.
An immunoassay as described in Example 1 was provided except that Mut3-C-peptide, Mut2-C-peptide or Mut5-C-peptide were used as ligand.
As described in Example 1, a SAM/biotin/streptavidin/biotin-ligand/antibody-complex is immobilized on an Au-surface. In this Example the ligand was C-peptide mutant B10-25_Mut3, the antibody was PEP001.
Immobilization of a ligand to a surface can also be performed using a linker (instead of a self-assembling monolayer). A suitable linker is for example a cysteine linker. In this configuration immobilization of an antibody via an antibody-ligand-complex to the surface can be detected by measuring impedance. A ligand having the sequence N-[…]-C(SEQ ID NO:7) was directly immobilized on an Au-surface. Additionally, 6-ferrocenyl-1-hexanethiol was bound to the Au surface for enhanced impedance measurement. Unspecific protein binding to the surface was avoided by incubation with a polyethylene glycol (ML-PEG) and bovine serum albumin (BSA).

[2] = tested on: anti-C-peptide antibody CPT-3-F11; experiment: QCM displacement immunoassay, ligand immobilized on Au-surface, antibody CPT-3-F11; type: binding

## N-CGSGSGSGS-VELGGGPGAGSLAPLA-C (CGSGSGSGSVELGGGPGAGSLAPLA; variant C-peptide Mut6-Cys) [SEQ ID NO:7, AA10-25; Q(22) to A and including a cysteine linker]
[1]; ligand directly immobilized on Au-surface via cysteine linker
  QCM frequency change on addition of PEP001 antibody: considerable negative shift of the frequency
[1]; ligand directly immobilized on Au-surface via cysteine linker, QCM
  effect of addition of WT-C-peptide on bound antibody: release of the bound antibody

## N-GQVECGGGPG-C (variant C-peptide Mut18) [Mut18-C-peptide, C-peptide variant AA8-17; L(12)to C]
[2]; antibody CPT-3-F11
  QCM frequency change on addition of sample containing WT-C-peptide (displacement of the ligand): considerable frequency increase
[2]; streptavidin/ligand assembly on Au-surface
  frequency shift on addition of anti-C-peptide antibody CPT-3-F11: ~−30 Hz

## N-VELGGGPGAGSIQPLA-C (variant C-peptide Mut3) [Mut3-C-peptide, C-peptide variant AA10-25; L(21)to I]
[1]; QCM
  QCM frequency change on addition of sample containing WT-C-peptide (displacement of the ligand, release of antibody-C-peptide-complex): considerable frequency increase
[1]; continuous assay, 500 ng/ml WT-C-peptide, antibody PEP001
  QCM frequency change on adding WT-C-peptide (release of antibody-WT-C-peptide-complex): positive frequency shift

## N-VELGGGPGAGSLAPLA-C (variant C-peptide Mut6) [Mut6-C-peptide, C-peptide variant AA10-25; Q(22)to A]
[1]; QCM, biotin-labeled ligand on SAM/biotin/streptavidin Au-surface, negative shift = mass increase
  frequency shift on binding of antibody PEP001 to the ligand: > −50 Hz
[1]; QCM
  QCM frequency change on addition of sample containing WT-C-peptide (displacement of the ligand, release of antibody-C-peptide-complex): observable positive frequency shift
